# Measurements taken from publication PMC9570594, “Development of Novel Pyridine-Thiazole Hybrid Molecules as Potential Anticancer Agents” (Molecules, 2022).
# Assays:
# PC-3 (Prostate Cancer) = test: NCI five-dose SRB assay; format: cell-based; details: Homo sapiens, 48 h
# SF-539 (CNS Cancer) = test: NCI five-dose SRB assay; format: cell-based; details: Homo sapiens, 48 h
# Jurkat (leukemia) = test: MTT assay of cell viability; details: Homo sapiens, 72 h
# M14 (Melanoma) = test: NCI five-dose SRB assay; format: cell-based; details: Homo sapiens, 48 h
# MCF-7 cells [1] = test: Chemical synthetic lethality: MTT after preincubation with BRCA1 inhibitor Bractoppin; format: cell-based; details: Homo sapiens, MCF7; MCF-7, 30 min preincubation with Bractoppin, 72 h MTT; read-out: IC50 in the case of BRCA1 inhibition
# [2] = tested on: MCF-7 breast cancer cells; test: Mitochondrial membrane potential, JC-1 (flow cytometry); format: cell-based, human; details: MCF-7, 5 µM, 24 h, control 5.1 ± 0.7%
# Procedure: A decrease in the mitochondrial membrane potential (MMP, ΔΨm) is one of the earliest changes observed at apoptosis. […] The MCF-7 cells had depolarized mitochondria, reaching 25.3 ± 1.5% and 24.7 ± 0.4% of the cell population treated with the compound 4 and 7, respectively. In the control, there were only 5.1 ± 0.7% cells with a decreased ΔΨm.
# Disruption of the MMP was assessed using the lipophilic cationic probe 5,5,6,6-tetrachloro-1,1,3,3-tetraethylbenzimidazolcarbocyanine iodide (JC-1 MitoScreen kit; BD Biosciences San Diego, CA, USA), as described previously. The entire assay was performed according to the manufacturer’s instructions provided with the purchased kit. […] Briefly, unfixed MCF-7 cells were washed and resuspended in the PBS supplemented with the JC-1 dye. Then, cells were incubated for 15 min at room temperature (RT) in the dark, washed, and resuspended in the PBS for the immediate BD FACSCanto II flow cytometry analysis.
# [3] = tested on: HOP-92 (Non-Small Cell Lung Cancer); test: NCI five-dose SRB assay; format: cell-based; details: Homo sapiens, 48 h
# SR (Leukemia) = test: NCI five-dose SRB assay; format: cell-based; details: Homo sapiens, 48 h
# OVCAR-8 (Ovarian Cancer) = test: NCI five-dose SRB assay; format: cell-based; details: Homo sapiens, 48 h
# BT-549 (Breast Cancer) = test: NCI five-dose SRB assay; format: cell-based; details: Homo sapiens, 48 h
# SK-MEL-28 (Melanoma) = test: NCI five-dose SRB assay; format: cell-based; details: Homo sapiens, 48 h
# K-562 (Leukemia) = test: NCI five-dose SRB assay; format: cell-based; details: Homo sapiens, K562, 48 h
# SK-OV-3 (ovarian) = test: MTT assay of cell viability; details: Homo sapiens, SK-OV-3, 72 h
# HCT-116 (Colon Cancer) = test: NCI five-dose SRB assay; format: cell-based; details: Homo sapiens, 48 h
# LOX IMVI (Melanoma) = test: NCI one-dose SRB assay; details: 10 μM, 48 h
# Procedure: Primary anticancer assays (Table 3) on a panel of 60 cancer cell lines at one dose-assay (10^−5 M) were performed according to the NCI protocol, as described elsewhere [31, 32, 33, 34, 35].
# A primary anticancer assay was performed on a panel of approximately sixty human tumor cell lines derived from nine neoplastic diseases, in accordance with the protocol of the Drug Evaluation Branch, National Cancer Institute, Bethesda [31, 32, 33, 34, 35]. Tested compounds were added to the culture at a single concentration (10^−5 M) and the cultures were incubated for 48 h. End point determinations were made with a protein binding dye, Sulphorhodamine B (SRB). […] The percentage growth was evaluated spectrophotometrically versus controls not treated with test agents.
# CAKI-1 (Renal Cancer) = test: NCI five-dose SRB assay; format: cell-based; details: Homo sapiens, 48 h
# SK-OV-3 (Ovarian Cancer) = test: NCI five-dose SRB assay; format: cell-based; details: Homo sapiens, 48 h
# [4] = tested on: human embryonic kidney HEK293 cells; test: MTT assay of cell viability; details: HEK293, 72 h
# [5] = tested on: Colon Cancer cell lines (MG_MID); test: NCI five-dose SRB assay; format: cell-based; details: Homo sapiens, 48 h
# [6] = tested on: NCI-H322M (Non-Small Cell Lung Cancer); test: NCI five-dose SRB assay; format: cell-based; details: Homo sapiens, 48 h
# MCF-7 cells [7] = test: PARP-1 inhibition in vitro: MTT after Fluzoparib pretreatment; format: cell-based, human; details: Homo sapiens, MCF7; MCF-7, compound alone (no preincubation), 72 h MTT; read-out: IC50
# Procedure: Taking into account the above data, PARP1 inhibition in vitro was investigated using pretreatment of the MCF-7 cells with the Fluzoparib, a potent PARP1 inhibitor in the non-toxic concentrations of 5, 10, and 15 µM. It had no significant growth inhibitory effect in such doses, and a reduction of cell viability by only 10–12% was observed compared to control (non-treated) cells. […] The preincubation step was used to bind PARP1 molecules, which were the potential targets of the studied compounds and to test if it would affect the activity of 3 and 4. […] The preincubation of cells with the Fluzoparib decreased their sensitivity to the compound 3 treatment in a less pronounced manner, compared with the effect of the compound 4. […] Changes in structure of the started compound 3 may cause an enhancement of the ability of molecule 4 to inhibit the activity of PARP1.
# To determine PARP inactivation, the MCF-7 cells were pretreated for 2 h in the non-toxic concentrations of 5, 10, 15 µM of the Fluzoparib (Med Chem Express, Monmouth Junction, NJ, USA), a potent PARP1 inhibitor used in the chemotherapy. Then, the medium was removed and increasing doses of the compounds 3 and 4 were added and cells were incubated for the next 72 h. The IC50 values of compounds were determined by the MTT assay, as described.
# KM12 (Colon Cancer) = test: NCI five-dose SRB assay; format: cell-based; details: Homo sapiens, 48 h
# MCF-7 cells [8] = test: Clonogenic assay; format: cell-based, human; details: 10 days
# Procedure: This assay essentially tests every cell in the population for its ability to undergo “unlimited” division. […] At 1 µM concentration, it reduced the ability of the MCF-7 single cell to grow into a colony to 36%. […] With a concentration equivalent to 10 µM of the compound 4, the DMSO increased the cell’s ability to grow in colony.
# MCF-7 cells were seeded in triplicate in 6-well plates (CytoONE, STARLAB International GmbH, Germany) at a density of 500 cells per well. After 24 h incubation, the compound 4 was added in 1 and 10 μM concentrations and cells were treated for 10 days. Colonies containing ≥ 50 cells were fixed with 50% (v/v) methanol in the PBS and stained with crystal violet (Sigma-Aldrich, Burlington, MA, USA). Stained colonies were counted and expressed as a fraction of the untreated control.
# U251 (CNS Cancer) = test: NCI five-dose SRB assay; format: cell-based; details: Homo sapiens, U-251, 48 h
# [9] = tested on: A549/ATCC (Non-Small Cell Lung Cancer); test: NCI five-dose SRB assay; format: cell-based; details: Homo sapiens, 48 h
# MCF-7 (Breast Cancer) = test: NCI five-dose SRB assay; format: cell-based; details: Homo sapiens, MCF7, 48 h
# OVCAR-3 (Ovarian Cancer) = test: NCI five-dose SRB assay; format: cell-based; details: Homo sapiens, 48 h
structure (smiles),measurement,setting,value
"CCOC(=O)c1ccc(NC(=O)CSC(CC(=O)c2sc(Nc3ccccn3)nc2C)c2ccccc2F)cc1 (stereo not shown) [Compound 4, Ethyl 4-[[2-[1-(2-Fluorophenyl)-3-[4-methyl-2-(2-pyridylamino)thiazol-5-yl]-3-oxopropyl]sulfanylacetyl]amino]benzoate]",GI50,PC-3 (Prostate Cancer),23.8 µM
same,GI50,SF-539 (CNS Cancer),32.5 µM
same,IC50,Jurkat (leukemia),5.36 ± 0.16 µM
same,GI50,M14 (Melanoma),19.4 µM
same,IC50,MCF-7 cells [1],0.7 µM
same,cells with depolarized mitochondria (decreased ΔΨm),[2],25.3 ± 1.5%
same,GI50,[3],12.5 µM
same,GI50,SR (Leukemia),24.1 µM
same,GI50,OVCAR-8 (Ovarian Cancer),53.6 µM
same,GI50,BT-549 (Breast Cancer),14.7 µM
same,GI50,SK-MEL-28 (Melanoma),38.7 µM
same,GI50,K-562 (Leukemia),30.4 µM
same,IC50,SK-OV-3 (ovarian),7.87 ± 0.23 µM
same,GI50,HCT-116 (Colon Cancer),23 µM
same,Growth %,LOX IMVI (Melanoma),−76.78%
same,GI50,CAKI-1 (Renal Cancer),11.5 µM
same,GI50,SK-OV-3 (Ovarian Cancer),26 µM
same,IC50,[4],> 50 µM
same,GI50,[5],51.6 µM
same,GI50,[6],25.4 µM
same,IC50,MCF-7 cells [7],3.53 µM
same,GI50,KM12 (Colon Cancer),55.6 µM
same,ability of single cell to grow into a colony (compared with control),"MCF-7 cells [8]; MCF-7, 1 µM",36%
same,colony formation,"MCF-7 cells [8]; MCF-7, 10 µM",No colony formation was observed
same,GI50,U251 (CNS Cancer),47.8 µM
same,GI50,[9],75.7 µM
same,GI50,MCF-7 (Breast Cancer),15.4 µM
same,GI50,OVCAR-3 (Ovarian Cancer),31.7 µM
